In the assay the target is human GOAT (ghrelin O-acyl transferase) (Homo sapiens (Human), UniProt Q96T53). Kind of assay: Determination of hGOAT activity in HEK293 cells after incubation with test compound (acyl-ghrelin ELISA). The following applies: HEK293 cells stably transfected with preproghrelin and human GOAT cDNA; octanoate-BSA 100 μM; 5 hours incubation; acyl-ghrelin in medium by ELISA; 8 compound concentrations. In kind it is cell-based. How it is done:
Determination of hGOAT Activity in HEK293 Cells after incubation with test compound
HEK293 cells stably transfected with two expression vectors, one coding for preproghrelin cDNA and a second for the expression of human GOATcDNA are used as a cellular model. After feeding the cells with octanoic acid for 5 hours, acyl-ghrelin is measured in cell culture medium by an ELISA procedure.
Cellline: Hek293 hGOAT/PPGhrl Clone #1B8Sodium octanoate, Sigma, Cat.-No. C5038
BSA: Sigma, Cat.-No. A8806
BD Poly-D-Lysin 384-well Plates, black-clear polystyrene BD Bioscience Cat.-No. […] ELISA human acylated Ghrelin Kit purchased from Bertin Pharman (detailed composition of buffers e.g. wash-puffer, ELISA buffer not known)
All further reagents used were of highest analytical grade available.
Cells are plated with a density of 5000 cells/well in 384-well poly-D-lysin plates and incubated for 1 day at 37° C., 5% CO2 in DMEM medium, 10% FCS, 1×NEAA, Puromycin (0.5 μg/ml) and G418 (1 mg/ml). Then the medium is changed to a identical medium without FCS and containing Octanoate-BSA (final concentration 100 μM each) and compound in DMSO (final DMSO concentration 0.3%). After incubation for 5 hours acylghrelin in the medium is measured by ELISA.
The medium sample is diluted 1:25 in Elisa buffer, a 25 μl aliquot is transferred to a 384-well ELISA plate previously washed 4 times with 100 μL wash buffer, and 25 μl tracer-solution is added. After incubation overnight (˜20 h) at 4° C. temperature the plate is washed 4 times with 100 μl wash-buffer per well. Finally 50 μl Ellman's reagent is added to each well and the plate is incubated in the dark for 20 minutes. The absorbance is measured at 405 nm in an Envision multilabel reader and the amount of acylated ghrelin is calculated according to a acylated ghrelin standard curve provided in the same plate.
The analysis of the data is performed by calculation of the percentage of acyl-ghrelin produced in the presence of test compound compared to the amount of acyl-ghrelin produced in the vehicle control samples. An inhibitor of the GOAT enzyme will give values between 100% CTL (no inhibition) and 0% CTL (complete inhibition).
IC50 values are calculated with Assay Explorer or other suited software based on curve fitting of results of 8 different compound concentrations.

pIC50: −log10 of the molar value. Where “and” joins values, the source holds several entries; their conditions need not be identical. Equal values may be shown once.

Chain of human GOAT (ghrelin O-acyl transferase) (Q96T53 whole entry): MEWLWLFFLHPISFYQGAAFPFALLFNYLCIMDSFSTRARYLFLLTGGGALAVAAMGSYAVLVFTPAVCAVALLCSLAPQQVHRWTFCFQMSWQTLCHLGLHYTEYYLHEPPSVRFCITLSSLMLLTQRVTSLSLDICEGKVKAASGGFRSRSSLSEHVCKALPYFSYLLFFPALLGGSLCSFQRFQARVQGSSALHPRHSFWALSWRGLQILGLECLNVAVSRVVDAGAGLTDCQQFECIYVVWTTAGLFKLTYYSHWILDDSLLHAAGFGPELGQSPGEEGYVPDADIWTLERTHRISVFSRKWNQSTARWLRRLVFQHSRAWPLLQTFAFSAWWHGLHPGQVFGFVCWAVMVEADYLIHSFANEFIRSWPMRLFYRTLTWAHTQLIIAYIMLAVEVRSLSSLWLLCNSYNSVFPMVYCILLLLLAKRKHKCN

`Cc1nc2ncnn2c(N)c1Cc1ccc(C(F)(F)F)c(N2CCOCC2)n1` [Example 3.1, 5-Methyl-6-{[6-(morpholin-4-yl)-5-(trifluoromethyl)pyridin-2-yl]methyl}-[1,2,4]triazolo[1,5-a]pyrimidin-7-amine] gave a pIC50 of 9.19.
The value for `Cc1nc2ncnn2c(N)c1Cc1ccc(SC(F)(F)F)cc1` [Example 6.5, 5-methyl-6-({4-[(trifluoromethyl)sulfanyl]phenyl}methyl)-[1,2,4]triazolo[1,5-a]pyrimidin-7-amine] was 8.77; that for `COc1cc(Cc2c(Cl)nc3ncnn3c2N)ccc1C(F)(F)F` [Example 25.2] was 9.00; that for `Cc1nc2ncnn2c(N)c1Cc1ccc(S(=O)(=O)C(F)(F)F)cc1` [Example 18.1, 5-Methyl-6-[(4-trifluoromethanesulfonylphenyl)methyl]-[1,2,4]triazolo[1,5-a]pyrimidin-7-amine] was 8.38.
The value for `Cc1nc2ncnn2c(N)c1Cc1ccc(C(F)(F)F)cc1` [Example 6.3] was 8.47; that for `Cc1nc2ncnn2c(N)c1Cc1ccc(C#N)c(NCC2CC2(F)F)n1` (stereo not drawn) [Example 7.10] was 8.21; that for `Cc1nc2ncnn2c(N)c1Cc1ccc(Br)c(OCCF)n1` [Example 8.3] was 9.52.
Next, `Cc1nc2ncnn2c(N)c1Cc1ccc(C#N)c(NCCCF)n1` [Example 7.9]: 8.89; `Cc1nc2ncnn2c(N)c1Cc1ccc(OC(F)(F)F)c(C(=O)N(C)C)c1` [Example 15.2, 5-({7-Amino-5-methyl-[1,2,4]triazolo[1,5-a]pyrimidin-6-yl}methyl)-N,N-dimethyl-2-(trifluoromethoxy)benzamide]: 8.46 and 8.27.
Molecule `Cc1nc2ncnn2c(N)c1Cc1ccc(C#N)c(NCCF)n1` [Example 7.8] gave a pIC50 of 8.96.
The value for `Cc1nc2ncnn2c(N)c1Cc1ccc(C#N)c(NC2CC(F)(F)C2)n1` [Example 7.3] was 8.64; that for `Cc1nc2ncnn2c(N)c1Cc1ccc(C#N)c(OCC(F)(F)F)n1` [Example 9.5] was 8.41; that for `Cc1nc2ncnn2c(N)c1Cc1ccc(OC(F)F)cc1` [Example 6.4] was 8.72.
Next, `Cc1nc2ncnn2c(N)c1Cc1ccc(OC(F)(F)F)c(C(N)=O)c1` [Example 15.4]: 8.03; `Cc1nc2ncnn2c(N)c1Cc1ccc(Br)c(OC(F)F)n1` [Example 5.1, 6-{[5-Bromo-6-(difluoromethoxy)pyridin-2-yl]methyl}-5-methyl-[1,2,4]triazolo[1,5-a]pyrimidin-7-amine]: 9.89; `Cc1nc2ncnn2c(N)c1Cc1ccc(C(F)(F)F)cc1Br` [Example 17.2]: 8.30.
Next, `Cc1nc2ncnn2c(N)c1Cc1ccc(Br)c(N2CCC(F)(F)CC2)n1` [Example 23.2]: 9.54; `Cc1nc2ncnn2c(N)c1Cc1ccc(C#N)c(OCC(C)(F)F)n1` [Example 7.4]: 8.89.
As for `Cc1nc2ncnn2c(N)c1Cc1ccc(Br)c(N2CC(C(F)(F)F)C2)n1` [Example 23.7], the pIC50 is 8.11.
The value for `Cc1nc2ncnn2c(N)c1Cc1ccc(OC(F)(F)F)c(N=S(C)(C)=O)c1` [Example 11.1, {[5-({7-Amino-5-methyl-[1,2,4]triazolo[1,5-a]pyrimidin-6-yl}methyl)-2-(trifluoromethoxy)phenyl]imino}dimethyl-λ6-sulfanone] was 9.02; that for `Cc1nc2ncnn2c(N)c1Cc1ccc(OC(F)(F)F)c(N=S2(=O)CCC2)c1` [Example 11.2] was 9.17; that for `Cc1nc2ncnn2c(N)c1Cc1ccc(Br)c(-n2ccc(C(F)(F)F)n2)n1` [Example 10.2] was 8.55.
The value for `Cc1nc2ncnn2c(N)c1Cc1ccc(C(F)(F)F)nc1OC1CCC1` [Example 4.6] was 8.52; that for `Cc1nc2ncnn2c(N)c1Cc1ccc(Br)c(-n2cc(F)cn2)n1` [Example 10.1, 6-{[5-Bromo-6-(4-fluoro-1H-pyrazol-1-yl)pyridin-2-yl]methyl}-5-methyl-[1,2,4]triazolo[1,5-a]pyrimidin-7-amine] was 9.17; that for `COc1cc(Cc2c(C)nc3ncnn3c2N)ccc1C(F)(F)F` [Example 7.5] was 9.04.
The value for `Cc1nc2ncnn2c(N)c1Cc1ccc(Br)c(-n2cc(C(F)(F)F)cn2)n1` [Example 10.3] was 8.07.
As to `Cc1nc2ncnn2c(N)c1Cc1ccc(C#N)c(NCCC(F)F)n1` [Example 7.7], the pIC50 is 9.03.
`Cc1nc2ncnn2c(N)c1Cc1ccc(Br)c(C(=O)OCC(F)(F)F)c1` [Example 22.1, 2,2,2-Trifluoroethyl 5-({7-amino-5-methyl-[1,2,4]triazolo[1,5-a]pyrimidin-6-yl}methyl)-2-bromobenzoate]: the pIC50 is 8.14.
Next, `Cc1nc2ncnn2c(N)c1Cc1ccc(C(F)F)cc1` [Example 4.9]: 8.01; `Cc1nc2ncnn2c(N)c1Cc1ccc(C#N)c(OCC2(C(F)(F)F)CC2)n1` [Example 9.2]: 8.08.
